From patent publication US5155103A, “Methods of using new thieno-triazole-1,4-diazepino-2-carboxylic acid amides” (Boehringer Ingelheim GmbH, priority 1985, dated 1992)

Each molecule was assayed on human thrombocytes (PAF-induced aggregation) (assay: inhibition of PAF-induced aggregation of human thrombocytes in vitro). Conditions: Homo sapiens, unit inferred; read-out: IC50.
Type: cell-based
Procedure: In order to determine the PAF-antagonistic effect of substances the PAF-induced aggregation of human thrombocytes in vitro is used. To obtain thrombocyte-rich plasma (TRP), blood is taken from an uncongested vein using a plastic syringe containing 3.8% sodium citrate solution. The ratio of sodium citrate solution to blood is 1:9. After careful mixing, the citrated blood is centrifuged for 20 minutes (150×g, 1200 rpm). The thrombocyte aggregation is measured using the method developed by Born and Cross (G. V. R. Born and M. J. Cross, J. Physiol. 168, 178 (1963)), PAF being added to the TRP with constant stirring to initiate aggregation.
The test substance is added 2 to 3 minutes before the aggregation is induced in a volume of 10 μl. The solvent used is either distilled water, ethanol and/or dimethylsulfoxide. Control mixtures are given corresponding volumes of these solvents. After the initial absorption has been recorded (2 to 3 minutes) aggregation is induced with PAF (5×10^-8 M).
To assess the effects of substances, the maximum of the first aggregation wave is used. The maximum absorption rate induced by PAF (=maximum aggregation×100%) is tested simultaneously in a parallel mixture (=control mixture in one of the channels of the 2-channel aggregometer) with each test mixture (second channel) and used as the 100% value.
The aggregation value achieved under the influence of the test substance is given as 100%.
Each test substance is investigated at concentrations of 10^-3 to 10^-8 M with a random test scope of n=4 for any inhibiting effect on the PAF-induced thrombocyte aggregation. Then a concentration-activity curve is drawn up using 3 concentrations and the IC50 is determined (concentration at 50% inhibition of aggregation).

Row | Compound | IC50 [nM]
1 | CCN(CC)C(=O)CCc1cc2c(s1)-n1c(C)nnc1CN=C2c1ccccc1Cl [Example 5, 2-[4-(2-Chlorophenyl)-9-methyl-6H-thieno[3,2-f][1,2,4]-triazolo[4,3-a][1,4]diazepin-2-yl]-ethane-1-carboxylic acid diethylamide] | 700
2 | Cc1nnc2n1-c1sc(CCC(=O)N3CCOCC3)cc1C(c1ccccc1Cl)=NC2 [Example 1, 2-[4-(2-Chlorophenyl)-9-methyl-6H-thieno[3,2-f][1,2,4]-triazolo[4,3-a][1,4]diazepin-2-yl]-ethane-1-carboxylic acid morpholide] | 170

Same assay, conditions: Table B; PAF 5×10^-8 M; human thrombocyte-rich plasma; read-out: PAF-Antag. IC50

Row | Compound | IC50 [nM]
3 | CCN(CC)C(=O)CCc1cc2c(s1)-n1c(nnc1C1CC1)CN=C2c1ccccc1Cl [Example 18, 2-[4-(2-Chlorophenyl)-9-cyclopropyl-6H-thieno[3,2-f][1,2,4]triazolo[4,3-a][1,4]diazepin-2-yl]-ethane-1-carboxylic acid diethylamide] | 800
4 | Cc1nnc2n1-c1sc(CCC(=O)N3CCOCC3)cc1C(c1ccccc1)=NC2 [Example 22, 2-[4-Phenyl-9-methyl-6H-thieno[3,2-f][1,2,4]triazolo-[4,3-a][1,4]diazepin-2-yl]-ethane-1-carboxylic acid morpholide] | 540
5 | COc1nnc2n1-c1sc(CCC(=O)N3CCOCC3)cc1C(c1ccccc1Cl)=NC2 [Example 10, 2-[4(2-Chlorophenyl)-9-methoxy-6H-thieno[3,2-f][1,2,4]-triazolo-[4,3-a][1,4]-diazepin-2-yl]-ethane-1-carboxylic acid morpholide] | 200
6 | Cc1nnc2n1-c1sc(CCC(=O)N3CCCCC3)cc1C(c1ccccc1Cl)=NC2 [Example 16, 2-[4-(2-Chlorophenyl)-9-methyl-6H-thieno[3,2-f][1,2,4]-triazolo[4,3-a][1,4]diazepin-2-yl]-ethane-1-carboxylic acid piperidide] | 1330
7 | O=C(CCc1cc2c(s1)-n1c(nnc1C1CC1)CN=C2c1ccccc1Cl)N1CCOCC1 [Example 2] | 330
8 | Cc1nnc2n1-c1sc(Br)cc1C(c1ccccc1Cl)=NC2 [Brotizolam, reference compound] | 500
9 | O=C(CCc1cc2c(s1)-n1c(Br)nnc1CN=C2c1ccccc1Cl)N1CCOCC1 [Example 9] | 470
10 | CCN(CC)C(=O)CCc1cc2c(s1)-n1c(C)nnc1CN=C2c1ccccc1Cl [Example 5, 2-[4-(2-Chlorophenyl)-9-methyl-6H-thieno[3,2-f][1,2,4]-triazolo[4,3-a][1,4]diazepin-2-yl]-ethane-1-carboxylic acid diethylamide] | 720
11 | Cc1nnc2n1-c1sc(CCC(=O)N3CCCC3)cc1C(c1ccccc1Cl)=NC2 [Example 15, 2-[4-(2-Chlorophenyl)-9-methyl-6H-thieno[3,2-f][1,2,4]-triazolo[4,3-a][1,4]diazepin-2-yl]-ethane-1-carboxylic acid pyrrolidide] | 380
12 | Cc1nnc2n1-c1sc(CCC(=O)N(CCO)CCO)cc1C(c1ccccc1Cl)=NC2 [Example 21] | 2900
13 | Cc1nnc2n1-c1sc(C(=O)N3CCOCC3)cc1C(c1ccccc1Cl)=NC2 [Example 3, [4-(2-Chlorophenyl)-9-methyl-6H-thieno[3,2-f][1,2,4]triazolo-[4,3-a][1,4]diazepin-2-yl]-carboxylic acid morpholide] | 710
14 | CCc1cc2c(s1)-n1c(C)nnc1CN=C2c1ccccc1Cl [Etizolam, reference compound] | 500
15 | O=C(CCc1cc2c(s1)-n1cnnc1CN=C2c1ccccc1Cl)N1CCOCC1 [Example 19, 2-[4-(2-chlorophenyl)-6H-thieno[3,2-f][1,2,4]-triazolo[4,3-a][1,4]-diazepin-2-yl]-ethane-1-carboxylic acid morpholide] | 8200
16 | Cc1nnc2n1-c1sc(CCC(=O)NCCO)cc1C(c1ccccc1Cl)=NC2 [Example 23] | 750
17 | Cc1nnc2n1-c1sc(CCC(=O)N3CCN(C)CC3)cc1C(c1ccccc1Cl)=NC2 [Example 17, 2-[4-(2-Chlorophenyl)-9-methyl-6H-thieno[3,2-f][1,2,4]-triazolo[4,3-a][1,4]diazepin-2-yl]-ethane-1-carboxylic acid N'-methyl-piperazide] | 900
18 | Cc1nnc2n1-c1sc(CC(N)=O)cc1C(c1ccccc1Cl)=NC2 [Example 20] | 5300
19 | CNC(=O)CCc1cc2c(s1)-n1c(C)nnc1CN=C2c1ccccc1Cl [Example 12, 2-[4-(2-Chlorophenyl)-9-methyl-6H-thieno[3,2-f][1,2,4]-triazolo[4,3-a][1,4]diazepin-2-yl]-ethane-1-carboxylic acid methylamide] | 350
20 | Cc1nnc2n1-c1sc(CCC(=O)N3CCOCC3)cc1C(c1ccccc1Cl)=NC2 [Example 1, 2-[4-(2-Chlorophenyl)-9-methyl-6H-thieno[3,2-f][1,2,4]-triazolo[4,3-a][1,4]diazepin-2-yl]-ethane-1-carboxylic acid morpholide] | 170
21 | Cc1nnc2n1-c1sc(CC(=O)N3CCOCC3)cc1C(c1ccccc1Cl)=NC2 [Example 6, [4-(2-Chlorophenyl)-9-methyl-6H-thieno[3,2-f][1,2,4]triazolo-[4,3-a][1,4]-diazepin-2-yl]-methane carboxylic acid morpholide] | 1300
22 | CCCOc1nnc2n1-c1sc(CCC(=O)N3CCOCC3)cc1C(c1ccccc1Cl)=NC2 [Example 26] | 8100
23 | O=C(CCc1cc2c(s1)-n1c(CCl)nnc1CN=C2c1ccccc1Cl)N1CCOCC1 [Example 24] | 1400
24 | Cc1nnc2n1-c1ccc(Cl)cc1C(c1ccccc1Cl)=NC2 [Triazolam, reference compound] | 1400
25 | Cc1nnc2n1-c1sc(CCC(=O)N(C)C)cc1C(c1ccccc1Cl)=NC2 [Example 14, 2-[4-(2-Chlorophenyl)-9-methyl-6H-thieno[3,2-f][1,2,4]-triazolo[4,3-a][1,4]diazepin-2-yl]-ethane-1-carboxylic acid dimethylamide] | 2200
26 | Cc1nnc2n1-c1sc(CCCC(=O)N3CCOCC3)cc1C(c1ccccc1Cl)=NC2 [Example 7, 3-[4-(2-Chlorophenyl)-9-methyl-6H-thieno[3,2-f][1,2,4]-triazolo-[4,3-a][1,4]-diazepin-2-yl]-propane-1-carboxylic acid morpholide] | 850
27 | Cc1nnc2n1-c1sc(CCC(=O)NC(C)C)cc1C(c1ccccc1Cl)=NC2 [Example 13, 2-[4-(2-Chlorophenyl)-9-methyl-6H-thieno[3,2-f][1,2,4]-triazolo[4,3-a][1,4]diazepin-2-yl]-ethane-1-carboxylic acid isopropylamide] | 1540
28 | Cc1nnc2n1-c1sc(C(N)=O)cc1C(c1ccccc1Cl)=NC2 [Example 4, [4-(2-Chlorophenyl)-9-methyl-6H-thieno[3,2-f][1,2,4]triazolo-[4,3-a][1,4]diazepin-2-yl]-carboxylic acid amide] | 8300
29 | Cc1nnc2n1-c1sc(CCCCC(=O)N3CCOCC3)cc1C(c1ccccc1Cl)=NC2 [Example 8] | 870
